ChEMBL document CHEMBL3885861, “Open TG-GATES”

Species: Rattus norvegicus
Assay: Open TG-GATES - Regimen: Single
Type: toxicity, organism-based, Sprague-Dawley
Design: regimen Single, gender Male, age 6 weeks
Conditions: in vivo, po, 0 mg/kg, route gavage, dose level Control; for APTT / Bas / Eos / Fbg / Hb / Ht / Lym / MCH / MCHC / MCV / Mono / Neu / PT / Plat / RBC / Ret / WBC: tissue Blood; for KIDNEY_L / KIDNEY_R / KIDNEY_TOTAL: tissue Kidney; for LIVER: tissue Liver; for A/G / ALP / ALT / AST / BUN / CRE / Ca / Cl / DBIL / GLC / IP / K / LDH / Na / PL / RALB / TBIL / TC / TG / TP / gamma-GTP: tissue Plasma

Compound: CC(=O)Nc1ccc2c(c1)Cc1ccccc1-2 [2-ACETYLAMINOFLUORENE]
- TERMINAL_BW (3 h): 224.8 g
- APTT (3 h): 20.9 s
- Bas (3 h): 0%
- Eos (3 h): 1%
- Fbg (3 h): 222.8 mg/dL
- Hb (3 h): 13.6 g/dL
- Ht (3 h): 39.5%
- Lym (3 h): 76.8%
- MCH (3 h): 21.5 pg
- MCHC (3 h): 34.5%
- MCV (3 h): 62.4 fL
- Mono (3 h): 2.4%
- Neu (3 h): 18.4%
- PT (3 h): 11.9 s
- Plat (3 h): 128.1 x10_4/uL
- RBC (3 h): 632.6 x10_4/ul
- Ret (3 h): 7.4%
- WBC (3 h): 87.7 x10_2/uL
- KIDNEY_L (3 h): 1 g
- KIDNEY_R (3 h): 1 g
- KIDNEY_TOTAL (3 h): 2 g
- LIVER (3 h): 10.3 g
- A/G (3 h): 1.7
- ALP (3 h): 1018.4 IU/L
- ALT (3 h): 36.6 IU/L
- AST (3 h): 77.4 IU/L
- BUN (3 h): 10.8 mg/dL
- CRE (3 h): 0.4 mg/dL
- Ca (3 h): 10.5 mg/dL
- Cl (3 h): 103.2 meq/L
- DBIL (3 h): 0.072 mg/dL
- GLC (3 h): 194.8 mg/dL
- IP (3 h): 9.7 mg/dL
- K (3 h): 4 meq/L
- LDH (3 h): 161.8 IU/L
- Na (3 h): 141 meq/L
- PL (3 h): 141.6 mg/dL
- RALB (3 h): 3.4 g/dL
- TBIL (3 h): 0.1 mg/dL
- TC (3 h): 77.8 mg/dL
- TG (3 h): 61.6 mg/dL
- TP (3 h): 5.5 g/dL
- gamma-GTP (3 h): 0.8 IU/L
- TERMINAL_BW (6 h): 219.6 g
- APTT (6 h): 20.9 s
- Bas (6 h): 0.6%
- Eos (6 h): 0.6%
- Fbg (6 h): 225.4 mg/dL
- Hb (6 h): 14.2 g/dL
- Ht (6 h): 40.9%
- Lym (6 h): 78.2%
- MCH (6 h): 21.8 pg
- MCHC (6 h): 34.6%
- MCV (6 h): 63.1 fL
- Mono (6 h): 2.8%
- Neu (6 h): 16.8%
- PT (6 h): 12.2 s
- Plat (6 h): 131.8 x10_4/uL
- RBC (6 h): 649.8 x10_4/ul
- Ret (6 h): 6.9%
- WBC (6 h): 108.9 x10_2/uL
- KIDNEY_L (6 h): 1 g
- KIDNEY_R (6 h): 1 g
- KIDNEY_TOTAL (6 h): 2 g
- LIVER (6 h): 9.3 g
- A/G (6 h): 1.7
- ALP (6 h): 956.2 IU/L
- ALT (6 h): 32.4 IU/L
- AST (6 h): 70.4 IU/L
- BUN (6 h): 9.6 mg/dL
- CRE (6 h): 0.4 mg/dL
- Ca (6 h): 10.5 mg/dL
- Cl (6 h): 101.4 meq/L
- DBIL (6 h): 0.076 mg/dL
- GLC (6 h): 196 mg/dL
- IP (6 h): 9.7 mg/dL
- K (6 h): 4.2 meq/L
- LDH (6 h): 166.6 IU/L
- Na (6 h): 140.4 meq/L
- PL (6 h): 139 mg/dL
- RALB (6 h): 3.4 g/dL
- TBIL (6 h): 0.1 mg/dL
- TC (6 h): 72.2 mg/dL
- TG (6 h): 89.8 mg/dL
- TP (6 h): 5.4 g/dL
- gamma-GTP (6 h): 1.2 IU/L
- TERMINAL_BW (9 h): 217 g
- APTT (9 h): 17.7 s
- Bas (9 h): 0.8%
- Eos (9 h): 0.8%
- Fbg (9 h): 241.4 mg/dL
- Hb (9 h): 13.9 g/dL
- Ht (9 h): 40.5%
- Lym (9 h): 75.2%
- MCH (9 h): 21.8 pg
- MCHC (9 h): 34.3%
- MCV (9 h): 63.4 fL
- Mono (9 h): 2.8%
- Neu (9 h): 19.4%
- PT (9 h): 12 s
- Plat (9 h): 124 x10_4/uL
- RBC (9 h): 639.4 x10_4/ul
- Ret (9 h): 6.7%
- WBC (9 h): 86.2 x10_2/uL
- KIDNEY_L (9 h): 1 g
- KIDNEY_R (9 h): 1 g
- KIDNEY_TOTAL (9 h): 1.9 g
- LIVER (9 h): 9.2 g
- A/G (9 h): 1.5
- ALP (9 h): 861.2 IU/L
- ALT (9 h): 32.4 IU/L
- AST (9 h): 67.8 IU/L
- BUN (9 h): 11.2 mg/dL
- CRE (9 h): 0.4 mg/dL
- Ca (9 h): 10.6 mg/dL
- Cl (9 h): 104 meq/L
- DBIL (9 h): 0.06 mg/dL
- GLC (9 h): 210.4 mg/dL
- IP (9 h): 9 mg/dL
- K (9 h): 3.7 meq/L
- LDH (9 h): 239.6 IU/L
- Na (9 h): 141 meq/L
- PL (9 h): 134.8 mg/dL
- RALB (9 h): 3.5 g/dL
- TBIL (9 h): 0.1 mg/dL
- TC (9 h): 73.6 mg/dL
- TG (9 h): 49.2 mg/dL
- TP (9 h): 5.7 g/dL
- gamma-GTP (9 h): 1 IU/L
- TERMINAL_BW (24 h): 237.9 g
- APTT (24 h): 20.8 s
- Bas (24 h): 0.2%
- Eos (24 h): 0.8%
- Fbg (24 h): 217.2 mg/dL
- Hb (24 h): 13.8 g/dL
- Ht (24 h): 40.1%
- Lym (24 h): 82%
- MCH (24 h): 22.5 pg
- MCHC (24 h): 34.3%
- MCV (24 h): 65.4 fL
- Mono (24 h): 3%
- Neu (24 h): 13.2%
- PT (24 h): 11.9 s
- Plat (24 h): 121.3 x10_4/uL
- RBC (24 h): 612 x10_4/ul
- Ret (24 h): 6.8%
- WBC (24 h): 101.1 x10_2/uL
- KIDNEY_L (24 h): 1.1 g
- KIDNEY_R (24 h): 1.1 g
- KIDNEY_TOTAL (24 h): 2.1 g
- LIVER (24 h): 11.4 g
- A/G (24 h): 1.7
- ALP (24 h): 1055.8 IU/L
- ALT (24 h): 40 IU/L
- AST (24 h): 69.4 IU/L
- BUN (24 h): 14.8 mg/dL
- CRE (24 h): 0.4 mg/dL
- Ca (24 h): 10.8 mg/dL
- Cl (24 h): 103.8 meq/L
- DBIL (24 h): 0.09 mg/dL
- GLC (24 h): 214.6 mg/dL
- IP (24 h): 8.3 mg/dL
- K (24 h): 3.9 meq/L
- LDH (24 h): 192.8 IU/L
- Na (24 h): 140.4 meq/L
- PL (24 h): 132.2 mg/dL
- RALB (24 h): 3.4 g/dL
- TBIL (24 h): 0.2 mg/dL
- TC (24 h): 64.2 mg/dL
- TG (24 h): 95.8 mg/dL
- TP (24 h): 5.4 g/dL
- gamma-GTP (24 h): 1.2 IU/L
